Experimental data taken from patent US12509469B2, “Compositions and methods for the treatment of pain and dependence disorders” (Ripple Therapeutics Corporation, priority 2019, dated 2025).

Columns and labels:
[1] = Drug release from heat-molded pellets in phosphate buffered saline (PBS); format: physicochemical; conditions: heat-molded pellet, 37° C., agitation at 115 rpm, HPLC
Experimental: (§1) Drug release from heat-molded pellets of Compound 1 (FIG. 1A) was assessed in phosphate buffered saline (PBS). Heat-molded pellets (FIG. 1B) were placed in 20 ml glass vials and 2 ml of release buffer was added. Samples were incubated at 37° C. with constant agitation at 115 rpm. Release buffer was sampled and fully replaced with 2 ml of fresh buffer daily with the exception of days 5, 6, 12, 13, and 14 (FIG. 1C). Samples were analyzed by high performance liquid chromatography (HPLC) to quantify drug products (FIG. 1D). Cumulative release was calculated as a percentage of total mass of starting pellets and was plotted over time.
as §1, with “3-7 and Compound 9-12 were” for “1 (FIG. 1A) was”, “pellets” for “pellets (FIG. 1B)”, “on” for “daily with the exception of”, “1, 3, 7, 10,” for “5, 6, 12, 13,”, “14.” for “14 (FIG. 1C).”, “products.” for “products (FIG. 1D).”

[2] = Heat processing of compounds: pellet formation by heat molding; format: physicochemical; conditions: for Pellet formation?: heat molding, cylindrical mold ~1 mm in height x 1 mm in diameter; for Pellet formation by heat molding (result in words): heat molding 10° C. to 30° C. above thermal transition, pressed into cylindrical mold
Experimental: Compounds were formed into pellets by heat molding. Powders of Compound 1-7 and Compounds 9-12 were processed at a temperature from between about 10° C. to 30° C. above their thermal transitions (e.g., glass transition temperature (Tg) for amorphous powders or melting point (Tm) for crystalline powders) of the given compound (e.g., from about 70° C. (Compound 9) to about 220° C. (Compound 2)), and pressed into a cylindrical mold of ˜1 mm in height×1 mm in diameter. Light microscopy was used to capture images of the heat-formed pellets.
These pellets had the appropriate processing properties to be tested as articles for drug delivery applications.
Compounds 16, 22, and 23 were also tested for pellet formation using a similar method as compounds 1-7 and 9-12. […] The recovered form was soft and tacky and could not be easily handled.

SMILES	Release in phosphate buffered saline (PBS): near zero order for [1]	Pellet formation? [2]	Pellet formation by heat molding (result in words) [2]
C=CCN1CC[C@]23c4c5ccc(OC(=O)CCCCC(=O)Oc6ccc7c8c6O[C@H]6C(=O)CC[C@@]9(O)[C@@H](C7)N(CC=C)CC[C@]869)c4O[C@H]2C(=O)CC[C@@]3(O)[C@H]1C5 [Compound 1, bis((4R,4aS,7aR,12bS)-3-allyl-4a-hydroxy-7-oxo-2,3,4,4a,5,6,7,7a-octahydro-1H-4,12-methanobenzofuro[3,2-e]isoquinolin-9-yl) adipate]	Near zero order for > 7 days	✓ (FIG. 1B)	–
O=C(CCCCC(=O)Oc1ccc2c3c1O[C@H]1C(=O)CC[C@@]4(O)[C@@H](C2)N(CC2CC2)CC[C@]314)Oc1ccc2c3c1O[C@H]1C(=O)CC[C@@]4(O)[C@@H](C2)N(CC2CC2)CC[C@]314 [Compound 2, bis((4R,4aS,7aR,12bS)-3-(cyclopropylmethyl)-4a-hydroxy-7-oxo-2,3,4,4a,5,6,7,7a-octahydro-1H-4,12-methanobenzofuro[3,2-e]isoquinolin-9-yl) adipate]	–	–	didn't form a viscous liquid that could be pressed into a pellet
C=C1CC[C@@]2(O)[C@H]3Cc4ccc(OC(=O)CCCCC(=O)Oc5ccc6c7c5O[C@H]5C(=C)CC[C@@]8(O)[C@@H](C6)N(CC6CC6)CC[C@]758)c5c4[C@@]2(CCN3CC2CC2)[C@H]1O5 [Compound 3, bis((4R,4aS,7aS,12bS)-3-(cyclopropylmethyl)-4a-hydroxy-7-methylene-2,3,4,4a,5,6,7,7a-octohydro-1H-4,12-methanobenzofuro[3,2-e]isoquinolin-9-yl) adipate]	Near zero order for > 7 days	✓ (FIG. 4B)	–
C=CCN1CC[C@]23c4c5ccc(OC(=O)CCCCCCCCC(=O)Oc6ccc7c8c6O[C@H]6C(=O)CC[C@@]9(O)[C@@H](C7)N(CC=C)CC[C@]869)c4O[C@H]2C(=O)CC[C@@]3(O)[C@H]1C5 [Compound 4, bis((4R,4aS,7aR,12bS)-3-allyl-4a-hydroxy-7-oxo-2,3,4,4a,5,6,7,7a-octahydro-1H-4,12-methanobenzofuro[3,2-e]isoquinolin-9-yl) decanedioate]	Near zero order for > 7 days	✓ (FIG. 5B)	–
C=CCN1CC[C@]23c4c5ccc(OC(=O)OCC6CCC(COC(=O)Oc7ccc8c9c7O[C@H]7C(=O)CC[C@@]%10(O)[C@@H](C8)N(CC=C)CC[C@]97%10)CC6)c4O[C@H]2C(=O)CC[C@@]3(O)[C@H]1C5 (stereo partly drawn) [Compound 5, bis((4R,4aS,7aR,12bS)-3-allyl-4a-hydroxy-7-oxo-2,3,4,4a,5,6,7,7a-octahydro-1H-4,12-methanobenzofuro[3,2-e]isoquinolin-9-yl) (cyclohexane-1,4-diylbis(methylene)) bis(carbonate)]	Near zero order for > 7 days	–	–
O=C(CCCCCCCCC(=O)Oc1ccc2c3c1O[C@H]1C(=O)CC[C@@]4(O)[C@@H](C2)N(CC2CC2)CC[C@]314)Oc1ccc2c3c1O[C@H]1C(=O)CC[C@@]4(O)[C@@H](C2)N(CC2CC2)CC[C@]314 [Compound 6, bis((4R,4aS,7aR,12bS)-3-(cyclopropylmethyl)-4a-hydroxy-7-oxo-2,3,4,4a,5,6,7,7a-octahydro-1H-4,12-methanobenzofuro[3,2-e]isoquinolin-9-yl) decanedioate]	Near zero order for > 7 days	✓ (FIG. 7B)	–
O=C(Oc1ccc2c3c1O[C@H]1C(=O)CC[C@@]4(O)[C@@H](C2)N(CC2CC2)CC[C@]314)C1CCC(C(=O)Oc2ccc3c4c2O[C@H]2C(=O)CC[C@@]5(O)[C@@H](C3)N(CC3CC3)CC[C@]425)CC1 (stereo partly drawn) [Compound 7, bis((4R,4aS,7aR,12bS)-3-(cyclopropylmethyl)-4a-hydroxy-7-oxo-2,3,4,4a,5,6,7,7a-octahydro-1H-4,12-methanobenzofuro[3,2-e]isoquinolin-9-yl) cyclohexane-1,4-dicarboxylate]	Near zero order for > 7 days	–	–
O=C(Oc1ccc2c3c1O[C@H]1C(=O)CC[C@@]4(O)[C@@H](C2)N(CC2CC2)CC[C@]314)c1ccc(C(=O)Oc2ccc3c4c2O[C@H]2C(=O)CC[C@@]5(O)[C@@H](C3)N(CC3CC3)CC[C@]425)cc1 [Compound 8, bis((4R,4aS,7aR,12bS)-3-(cyclopropylmethyl)-4a-hydroxy-7-oxo-2,3,4,4a,5,6,7,7a-octahydro-1H-4,12-methanobenzofuro[3,2-e]isoquinolin-9-yl) terephthalate]	–	–	did not form a heat processed pellet
O=C(CCCCCCCCCCCCC(=O)Oc1ccc2c3c1O[C@H]1C(=O)CC[C@@]4(O)[C@@H](C2)N(CC2CC2)CC[C@]314)Oc1ccc2c3c1O[C@H]1C(=O)CC[C@@]4(O)[C@@H](C2)N(CC2CC2)CC[C@]314 [Compound 9, bis((4R,4aS,7aR,12bS)-3-(cyclopropylmethyl)-4a-hydroxy-7-oxo-2,3,4,4a,5,6,7,7a-octahydro-1H-4,12-methanobenzofuro[3,2-e]isoquinolin-9-yl) tetradecanedioate]	Near zero order for > 7 days	✓ (FIG. 10B)	–
CCC(C)(CC(=O)Oc1ccc2c3c1O[C@H]1C(=O)CC[C@@]4(O)[C@@H](C2)N(CC2CC2)CC[C@]314)CC(=O)Oc1ccc2c3c1O[C@H]1C(=O)CC[C@@]4(O)[C@@H](C2)N(CC2CC2)CC[C@]314 [Compound 10, bis((4R,4aS,7aR,12bS)-3-(cyclopropylmethyl)-4a-hydroxy-7-oxo-2,3,4,4a,5,6,7,7a-octohydro-1H-4,12-methanobenzofuro[3,2-e]isoquinolin-9-yl) 3-ethyl-3-methylpentonedioate]	Near zero order for > 7 days	✓ (FIG. 11B)	–
O=C(OCCCCCCOC(=O)Oc1ccc2c3c1O[C@H]1C(=O)CC[C@@]4(O)[C@@H](C2)N(CC2CC2)CC[C@]314)Oc1ccc2c3c1O[C@H]1C(=O)CC[C@@]4(O)[C@@H](C2)N(CC2CC2)CC[C@]314 [Compound 11, bis((4R,4aS,7aR,12bS)-3-(cyclopropylmethyl)-4a-hydroxy-7-oxo-2,3,4,4a,5,6,7,7a-octohydro-1H-4,12-methanobenzofuro[3,2-e]isoquinolin-9-yl) hexane-1,6-diyl bis(carbonate)]	Near zero order for > 7 days	✓ (FIG. 12B)	–
O=C(OCC1CCC(COC(=O)Oc2ccc3c4c2O[C@H]2C(=O)CC[C@@]5(O)[C@@H](C3)N(CC3CC3)CC[C@]425)CC1)Oc1ccc2c3c1O[C@H]1C(=O)CC[C@@]4(O)[C@@H](C2)N(CC2CC2)CC[C@]314 (stereo partly drawn) [Compound 12, cyclohexane-1,4-diylbis(methylene) bis((4R,4aS,7aR,12bS)-3-(cyclopropylmethyl)-4a-hydroxy-7-oxo-2,3,4,4a,5,6,7,7a-octohydro-1H-4,12-methanobenzofuro[3,2-e]isoquinolin-9-yl) bis(carbonate)]	Near zero order for > 7 days	–	–
COc1ccc2cc([C@H](C)C(=O)OCC3CCC(COC(=O)[C@@H](C)c4ccc5cc(OC)ccc5c4)CC3)ccc2c1 (stereo partly drawn) [Compound 16, cyclohexane-1,4-diylbis(methylene) (2S,2S)-bis(2-(6-methoxynaphthalen-2-yl)proponoote)]	–	–	deformed during the process of removal from the mold
CCN[C@H]1C[C@H](C)S(=O)(=O)c2sc(S(=O)(=O)NC(=O)OCCCCCCCCOC(=O)NS(=O)(=O)c3cc4c(s3)S(=O)(=O)[C@@H](C)C[C@@H]4NCC)cc21 [Compound 22, 8-(((((4S,6S)-4-(ethylamino)-6-methyl-7,7-dioxido-5,6-dihydro-4H-thieno[2,3-b]thiopyron-2-yl)sulfonyl)carbamoyl)oxy)octyl (((4S,6S)-4-(ethylamino)-6-methyl-7,7-dioxido-5,6-dihydro-4H-thieno[2,3-b]thiopyron-2-yl)sulfonyl)carbomate]	–	–	Neither compound formed a viscous liquid that could be pressed into a pellet
